Paper PMC11855827, “High-Throughput Screening of Five Compound Libraries for Anthelmintic Activity and Toxicity Leads to the Discovery of Two Flavonoid Compounds” (International Journal of Molecular Sciences, 2025)
Read-outs that look alike come from different tables or passages of the source.

Tested on: C. elegans
[1] = Table S2, C. elegans SS assay, 110 μM, 0 h, averages of 4 data points
[2] = Table S2, C. elegans SS assay, 110 μM, 24 h, averages of 4 data points

Row | Structure (SMILES) | Percentage of motility inhibition 0 h [1] [%] | Percentage of motility inhibition 24 h [2] [%] | Percentage of motility inhibition 0 h (110 µM) [%] | Percentage of motility inhibition 24 h (110 µM) [%]
1 | COc1cc(-c2oc3cc(O)cc(O)c3c(=O)c2O[C@@H]2O[C@H](CO)[C@@H](O)[C@H](O)[C@H]2O[C@@H]2O[C@@H](C)[C@H](O)[C@@H](O)[C@H]2O)ccc1O [Isorhamnetin‐3‐O‐neohespeidoside] | 45 | 5 | – | –
2 | COc1ccc([C@@H]2CC(=O)c3c(O)cc(O[C@@H]4O[C@H](CO)[C@@H](O)[C@H](O)[C@H]4O)cc3O2)cc1 [Isosakuranin] | 1 | 2 | – | –
3 | O=c1cc(-c2ccc(O)cc2)oc2c([C@@H]3O[C@H](CO)[C@@H](O)[C@H](O)[C@H]3O)c(O)c([C@@H]3OC[C@H](O)[C@H](O)[C@H]3O)c(O)c12 [Isoschaftoside] | 9 | 0 | – | –
4 | COc1cc(C2Oc3ccc([C@H]4Oc5cc(O)cc(O)c5C(=O)[C@@H]4O)cc3OC2CO)ccc1O (some centres unmarked) [Isosilybin] | 2 | 0 | – | –
5 | COc1ccc(-c2cc(=O)c3c(OC)cc(OC)c(OC)c3o2)cc1OC [Isosinensetin] | 0 | 2 | – | –
6 | C[C@H]1CC[C@@H]2N(C1)C[C@H]1[C@@H]3C[C@H]4[C@@H](C[C@@H](O)[C@H]5C[C@@H](O)CC[C@@]54C)[C@@H]3CC[C@@H]1[C@]2(C)O [Isoverticine] | 0 | 0 | – | –
7 | C[C@@H]1O[C@@H](c2c(O)c([C@@H]3O[C@H](CO)[C@@H](O)[C@H](O)[C@H]3O)c3oc(-c4ccc(O)cc4)cc(=O)c3c2O)[C@H](O)[C@H](O)[C@H]1O [Isoviolanthin] | 21 | 2 | – | –
8 | COc1cc(-c2cc(=O)c3c(O)c(OC)c(O)cc3o2)ccc1O [Jaceosidin] | 0 | 5 | – | –
9 | COc1cc2c(cc1O)CC[n+]1cc3c(OC)c(OC)ccc3cc1-2.[Cl-] [Jatrorrhizine (chloride)] | 33 | 4 | – | –
10 | COc1cc2c(cc1O)CC[n+]1cc3c(OC)c(OC)ccc3cc1-2.[OH-] [Jatrorrhizine (hydroxide)] | 8 | 5 | – | –
11 | Oc1cnc2c(O)cccc2c1 [Jineol] | 0 | 0 | – | –
12 | CC(C)=C[C@H]1C[C@](C)(O)[C@@H]2[C@H]3CC[C@@H]4[C@@]5(C)CC[C@H](O[C@@H]6OC[C@H](O)[C@H](O[C@@H]7O[C@H](CO[C@@H]8O[C@H](CO)[C@@H](O)[C@H](O)[C@H]8O)[C@@H](O)[C@H](O)[C@H]7O[C@@H]7OC[C@@H](O)[C@H](O)[C@H]7O)[C@H]6O[C@@H]6O[C@@H](C)[C@H](O)[C@@H](O)[C@H]6O)C(C)(C)[C@@H]5CC[C@@]4(C)[C@@]34CO[C@@]2(C4)O1 [Jujuboside A] | – | – | 0 | 0
13 | CC(C)=C[C@H]1C[C@](C)(O)[C@@H]2[C@H]3CC[C@@H]4[C@@]5(C)CC[C@H](O[C@@H]6OC[C@H](O)[C@H](O[C@@H]7O[C@H](CO)[C@@H](O)[C@H](O)[C@H]7O[C@@H]7OC[C@@H](O)[C@H](O)[C@H]7O)[C@H]6O[C@@H]6O[C@@H](C)[C@H](O)[C@@H](O)[C@H]6O)C(C)(C)[C@@H]5CC[C@@]4(C)[C@@]34CO[C@@]2(C4)O1 [Jujuboside B] | 0 | 0 | – | –
14 | O=c1c(O[C@@H]2O[C@H](CO[C@@H]3O[C@H](CO)[C@@H](O)[C@H](O)[C@H]3O)[C@@H](O)[C@H](O)[C@H]2O)c(-c2ccc(O)cc2)oc2cc(O)cc(O)c12 [Kaempferol 3‐O‐gentiobioside] | 0 | 12 | – | –
15 | O=C(O)[C@H]1O[C@@H](Oc2c(-c3ccc(O)cc3)oc3cc(O)cc(O)c3c2=O)[C@H](O)[C@@H](O)[C@@H]1O [Kaempferol 3‐O‐β‐D‐glucuronide] | 5 | 0 | – | –
16 | C[C@@H]1O[C@@H](O[C@H]2[C@H](Oc3c(-c4ccc(O)cc4)oc4cc(O)cc(O)c4c3=O)O[C@H](CO)[C@@H](O)[C@@H]2O)[C@H](O)[C@H](O)[C@H]1O [Kaempferol 3‐neohesperidoside] | 17 | 10 | – | –
17 | C[C@@H]1O[C@@H](O[C@H]2[C@H](Oc3c(-c4ccc(O)cc4)oc4cc(O)cc(O)c4c3=O)O[C@H](CO)[C@@H](O)[C@@H]2O)[C@H](O)[C@H](O)[C@H]1O [Kaempferol‐3‐O‐glucorhamnoside] | 5 | 2 | – | –
18 | C[C@@]12C=Cc3occc3[C@H]1CC[C@@]13C[C@@H](CC[C@H]12)[C@@](O)(CO)C3 [Kahweol] | 11 | 19 | – | –
19 | C=C1CC[C@@H]2[C@](C)(COC(=O)CCC(=O)[O-])[C@H](OC(=O)CCC(=O)O)CC[C@@]2(C)[C@@H]1/C=C/C1=CCOC1=O.[K+] [Kalii Dehydrographolidi Succinas] | 5 | 5 | – | –
20 | NC[C@H]1O[C@H](O[C@H]2[C@H](O)[C@@H](O[C@H]3O[C@H](CO)[C@@H](O)[C@H](N)[C@H]3O)[C@H](N)C[C@@H]2N)[C@H](O)[C@@H](O)[C@@H]1O.O=S(=O)(O)O [Kanamycin (sulfate)] | 22 | 7 | – | –
21 | C[C@@H]1CC[C@@H]2O[C@@]23C(=O)C(=O)[C@@H]2[C@@H](C2(C)C)[C@@]13C [Kanshone C] | 17 | 22 | – | –
22 | C[C@H]1O[C@H](OC2[C@@H](O)[C@@H](O)C(O)[C@H](O)[C@H]2O)[C@@H](N)C[C@@H]1N=C(N)C(=O)O.Cl.O (some centres unmarked) [Kasugamycin (hydrochloride hydrate)] | 12 | 0 | – | –

Row | Structure (SMILES) | Percentage of motility inhibition 0 h [1] [%] | Percentage of motility inhibition 24 h [2] [%] | Percentage of motility inhibition 0 h (110 µM) [%] | Percentage of motility inhibition 24 h (110 µM) [%]
23 | CC1(C)CCC[C@]2(C)[C@@H]1CC[C@@]13C[C@H](CC[C@H]12)[C@@](O)(CO)C3 [Kauran-16,17-diol] | 0 | 22 | – | –
24 | C[C@@H]1CC[C@@]2(NC1)O[C@H]1C[C@H]3[C@@H]4CC=C5C[C@@H](O[C@@H]6O[C@H](CO)[C@@H](O[C@@H]7O[C@@H](C)[C@H](O)[C@@H](O)[C@H]7O)[C@H](O)[C@H]6O)CC[C@]5(C)[C@H]4CC[C@]3(C)[C@H]1[C@@H]2C [Khasianine] | 19 | 10 | – | –
25 | OC[C@H]1O[C@@H](Oc2cc3c(O)cc(O)cc3[o+]c2-c2ccc(O)c(O)c2)[C@H](O)[C@@H](O)[C@@H]1O.[Cl-] [Kuromanin (chloride)] | 34 | 5 | – | –
26 | C=C(C)[C@H](CC=C(C)C)Cc1c(O)cc(OC)c2c1O[C@H](c1ccc(O)cc1O)[C@@H](O)C2=O [Kushenol I] | 0 | 8 | – | –
27 | CC(C)=CCc1c(O)ccc(C(=O)[C@@H]2[C@@H](c3c(O)cc(O)c4c(=O)c(CC=C(C)C)c(-c5ccc(O)cc5O)oc34)C=C(C)C[C@H]2c2ccc(O)cc2O)c1O [Kuwanon H] | 11 | 23 | – | –
28 | O=C(O)c1cc(=O)c2ccccc2[nH]1 [Kynurenic acid] | 17 | 0 | – | –
29 | N=C(N)NCCC[C@H](N)C(=O)O.N[C@@H](CCC(=O)O)C(=O)O [L-Arginine (L-glutamate)] | 22 | 0 | – | –
30 | Cl.N=C(N)NCCC[C@H](N)C(=O)O [L-Arginine (hydrochloride)] | 20 | 17 | – | –
31 | O=C1O[C@H]([C@@H](O)CO)C([O-])=C1O.[Na+] [L-Ascorbic acid (sodium salt)] | 6 | 3 | – | –
32 | NC(=O)C[C@H](N)C(=O)O [L-Asparagine] | 27 | 25 | – | –
33 | C[N+](C)(C)C[C@H](O)CC(=O)[O-] [L-Carnitine] | 7 | 1 | – | –
34 | N[C@@H](CCC(=O)O)C(=O)[O-].[Na+] [L-Glutamic acid (monosodium salt)] | 1 | 0 | – | –
35 | CN1[C@@H]2CC[C@H]1CC(OC(=O)[C@H](CO)c1ccccc1)C2.CN1[C@@H]2CC[C@H]1CC(OC(=O)[C@H](CO)c1ccccc1)C2.O=S(=O)(O)O (stereo partly drawn) [L-Hyoscyamine (sulfate)] | 1 | 6 | – | –
36 | CN1[C@@H]2CC[C@H]1C[C@@H](OC(=O)[C@H](CO)c1ccccc1)C2 [L-Hyoscyamine] | 55 | 28 | – | –
37 | NCCCC[C@H](N)C(=O)O.O [L-Lysine hydrate] | 8 | 2 | – | –
38 | Cl.NCCCC[C@H](N)C(=O)O [L-Lysine hydrochloride] | 19 | 0 | – | –
39 | NCCC[C@H](N)C(=O)O [L-Ornithine] | 2 | 4 | – | –
40 | C=C(C)[C@@H]1CC=C(C=O)CC1 [L-Perillaldehyde] | 22 | 25 | – | –
41 | C=C1C(=O)O[C@@H]2[C@H]3C(CO)=CC(=O)C3=C(C)C[C@H](OC(=O)Cc3ccc(O)cc3)[C@@H]12 [Lactupicrin] | 7 | 25 | – | –
42 | COc1cc2c(cc1O)-c1c(OC)c(O)cc3c1[C@H](C2)NCC3 [Laetanine] | 0 | 0 | – | –
43 | CC[C@@H](C(=O)[C@@H](C)[C@@H](O)[C@H](C)CCc1ccc(C)c(O)c1C(=O)[O-])[C@H]1O[C@](CC)([C@H]2CC[C@](O)(CC)[C@H](C)O2)C[C@@H]1C.[Na+] [Lasalocid (sodium)] | 15 | 4 | – | –
